{"source": "patent US20230104487A1", "about": "“11-(4-CHLOROPHENYL)-4-(2,3-DIHYDRO-1H-INDOLE-1-CARBONYL)-3,11-DIMETHYL-5,10,DIOXATRICYCLO[7.4.0.0,2,6,]TRIDECA-1,3,6,8-TETRAEN-13-ONE AND DERIVATIVES AS DESTABILIZER OF CRY1 FOR THE TREATMENT OF CIRCADIAN RHYTHM ASSOCIATED DISEASES AND DISORDERS” (KOC UNIVERSITESI, priority 2019, published 2023)", "assay": "Plasma pharmacokinetics in mice", "assay_type": "in vivo, mouse", "description": "C57BL/6J female mice (n=4 per each time point) were treated with 100 mg/kg single dose of FORMULA I intraperitoneally. Blood samples were collected 0, 0.5, 1, 2, 4, 8, 12 and 24 h after administration of FORMULA I by cardiac puncture under isoflurane anesthesia. Plasma was obtained by centrifugation from heparinized tubes and stored at −80° C. until analysis. Brain tissues were quickly removed and stored at −80° C. for further processing. For assessment of the brain exposure of FORMULA I, levels in this tissue were only determined at 2nd (n=2) and 4th (n=2) hours according to maximum concentrations of the molecule in plasma.\nLiquid chromatography coupled to tandem mass spectrometry (LC-MS/MS) was used to obtain high mass accuracy data of the analytes in plasma samples for the determination of FORMULA I and Internal standard (IS) Loratadine. The instrument was operated in full scan mode and ion source parameters were optimised for the analytes. The optimized conditions of the electrospray ionization (ESI) source were as follows: gas temperature, 300° C.; gas flow, 10 L/min; nebulizer pressure, 25 psi; capillary voltage, 5500 V. ESI in the positive ion mode provides the best results for FORMULA I. For MS-MS detection, the protonated molecules were selected as precursor ions and the most abundant fragment ions obtained at collision energy of 22-20 eV were monitored as the product ions for FORMULA I and IS. MS-MS analysis was performed in the selected reaction monitoring (SRM) positive ionization mode, using mass transitions for FORMULA I m/z 472.1→353.4 [collision energy (CE)=22 eV] and Fragmentor 234 V, for IS; m/z 383.2→337.2 (CE=20 eV) and fragmentor 140 V. For the separation of the analytes, a conventional reversed-phase LC separation on C18-bonded silica was used, with Methanol: % 0.1 Formic acid (90:10, v/v) mobile phase. FORMULA I was extracted from plasma samples by using liquid-liquid extraction with Methanol. 10 μL of sample was injected into the LC-MS/MS system.\nPeak plasma concentration (Cmax) and time to reach peak plasma concentration (tmax) values were directly obtained from the FORMULA I plasma concentration-time curve. The area under the plasma concentration-time curve from […] was calculated by the trapezoidal method. AUC0-∞ was obtained by addition of the extrapolated part after the last sampling time using standard techniques. Other pharmacokinetic parameters of FORMULA I were calculated by the non-compartmental method. Elimination rate constant (kel) was calculated from the terminal points of FORMULA I plasma concentration-time plot and the slope of this line was equal to kel. Terminal elimination half-life (t½) was calculated by ln-linear approximation of terminal points of the data. t½ and kel were interconverted with the following formula: t1/2=ln 2/kel", "key": {"[1]": {"conditions": "female, C57BL/6J, mouse, ip, 100 mg/kg, single dose, plasma"}}, "note": "Where two headings read alike, the source gives them in different places.", "data": [{"compound": "Cc1c(C(=O)N2CCc3ccccc32)oc2ccc3c(c12)C(=O)CC(C)(c1ccc(Cl)cc1)O3", "note": "(stereo not drawn) [FORMULA I, 11-(4-chlorophenyl)-4-(2,3-dihydro-1H-indole-1-carbonyl)-3,11-dimethyl-5,10,dioxatricyclo[7.4.0.0,2,6,]trideca-1,3,6,8-tetraen-13-one]", "values": [{"measurement": "time plasma level first detected", "setting": "100 mg/kg, single dose, i.p.", "value": 0.5, "unit": "h"}, {"measurement": "time plasma level still quantifiable", "setting": "100 mg/kg, single dose, i.p.", "value": 24, "unit": "h"}, {"measurement": "kel", "setting": "100 mg/kg, single dose, i.p., plasma", "value": "0.127 ± 0.01", "unit": "h⁻¹"}, {"measurement": "AUC(0-inf)", "setting": "[1]", "value": "5190 ± 3130", "unit": "ng·h/mL"}, {"measurement": "Cmax", "setting": "[1]", "value": "1150 ± 506", "unit": "ng/mL"}, {"measurement": "Tmax", "setting": "[1]", "value": "2 to 4", "unit": "h"}, {"measurement": "half-life", "setting": "female, C57BL/6J, mouse, plasma, intraperitoneal, 100 mg/kg, in vivo, mice, read-out: half-life in blood (converted)", "value": 6, "unit": "h"}, {"measurement": "half-life", "setting": "female, C57BL/6J, mouse, plasma, ip, 100 mg/kg, single dose, i.p., plasma, read-out: t1/2 (converted)", "value": "5.5 ± 0.33", "unit": "h"}, {"measurement": "half-life in blood", "setting": "in vivo, mice", "value": "~6", "unit": "h"}]}]}
